Results as given in the Kinase Knowledgebase extract (Sharma et al. 2016).

The compounds below were run against PIK3CA (UniProt P42336) (assay: In Vitro Inhibition of PIK3CA Kinase Activity).
PIK3CA, sequence (P42336 whole entry, looked up): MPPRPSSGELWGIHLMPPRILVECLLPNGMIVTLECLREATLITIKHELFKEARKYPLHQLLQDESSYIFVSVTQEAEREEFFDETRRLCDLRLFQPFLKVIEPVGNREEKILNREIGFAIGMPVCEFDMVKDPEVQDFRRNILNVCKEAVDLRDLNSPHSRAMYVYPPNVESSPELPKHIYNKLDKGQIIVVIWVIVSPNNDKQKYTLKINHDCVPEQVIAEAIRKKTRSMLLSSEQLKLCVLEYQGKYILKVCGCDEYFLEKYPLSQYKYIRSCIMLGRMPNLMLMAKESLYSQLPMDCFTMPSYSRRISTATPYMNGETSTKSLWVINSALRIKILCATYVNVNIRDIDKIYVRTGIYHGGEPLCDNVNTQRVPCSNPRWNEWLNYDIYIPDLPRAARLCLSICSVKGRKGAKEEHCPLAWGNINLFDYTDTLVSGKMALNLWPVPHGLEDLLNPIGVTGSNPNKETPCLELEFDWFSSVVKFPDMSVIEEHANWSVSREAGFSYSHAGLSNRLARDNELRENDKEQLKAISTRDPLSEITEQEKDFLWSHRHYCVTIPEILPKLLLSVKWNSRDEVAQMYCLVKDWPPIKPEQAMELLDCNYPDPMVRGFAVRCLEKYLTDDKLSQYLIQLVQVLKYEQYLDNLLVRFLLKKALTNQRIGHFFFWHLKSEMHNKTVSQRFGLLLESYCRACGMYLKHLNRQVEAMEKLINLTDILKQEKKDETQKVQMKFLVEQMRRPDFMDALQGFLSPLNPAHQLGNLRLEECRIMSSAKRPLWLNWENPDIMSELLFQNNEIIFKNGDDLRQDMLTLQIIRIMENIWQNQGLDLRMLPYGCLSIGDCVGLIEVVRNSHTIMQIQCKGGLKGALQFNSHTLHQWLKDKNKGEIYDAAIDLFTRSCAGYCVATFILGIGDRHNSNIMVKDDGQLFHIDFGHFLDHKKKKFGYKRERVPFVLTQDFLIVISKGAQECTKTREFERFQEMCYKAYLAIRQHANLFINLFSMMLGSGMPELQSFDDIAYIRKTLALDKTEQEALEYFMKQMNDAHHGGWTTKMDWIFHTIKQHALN

| SMILES | IC50 [µM] |
| --- | --- |
| O=c1cc(N2CCOCC2)oc2c1ccc1ccccc12 | 20 |
| O=c1cc(-c2ccc(Cl)cc2)oc(N2CCOCC2)c1 | 10 |
| CC(C)(C)c1ccc(-c2cc(=O)cc(N3CCOCC3)o2)cc1 | 37 |
| O=c1cc(N2CCOCC2)oc2ccc3ccccc3c12 | 11 |
| O=c1cc(N2CCOCC2)oc2cc(OCc3ccc(F)cc3)ccc12 | 95 |
| O=c1cc(N2CCOCC2)oc2cc(OCc3ccc(Cl)cc3)ccc12 | > 100 |
| O=c1cc(N2CCOCC2)nc2c3ccccc3ccn12 | 750 |
| COc1ccc(-c2cc(=O)cc(N3CCOCC3)o2)cc1 | 15 |
| O=C1c2ccccc2C(=O)N1CCCOc1ccc2c(=O)cc(N3CCOCC3)oc2c1 | 6 |
| O=c1cc(-c2ccccc2)oc(N2CCOCC2)c1 | 30 |

The remaining compounds from weak to strong by IC50, led by results:

| IC50 [µM] | SMILES |
| --- | --- |
| 18 | O=c1cc(N2CCOCC2)oc2c3c(ccc12)CCCC3 |
| 16 | O=c1cc(N2CCOCC2)oc2cc3ccccc3cc12 |
| 13 | O=c1cc(-c2ccc(F)cc2)oc(N2CCOCC2)c1 |
| 6 | O=c1cc(N2CCSCC2)oc2c1ccc1ccccc12 |
| 2.5 | CC1CN(c2cc(=O)c3ccc4ccccc4c3o2)CCO1 (stereo not given) |
